Data on eight compounds can be found in ChEMBL document CHEMBL1201862, “PubChem BioAssay data set” (2004).

In experiment [1] the target is T1, Aryl hydrocarbon receptor (Homo sapiens, UniProt P35869).
T1 sequence (P35869 whole entry): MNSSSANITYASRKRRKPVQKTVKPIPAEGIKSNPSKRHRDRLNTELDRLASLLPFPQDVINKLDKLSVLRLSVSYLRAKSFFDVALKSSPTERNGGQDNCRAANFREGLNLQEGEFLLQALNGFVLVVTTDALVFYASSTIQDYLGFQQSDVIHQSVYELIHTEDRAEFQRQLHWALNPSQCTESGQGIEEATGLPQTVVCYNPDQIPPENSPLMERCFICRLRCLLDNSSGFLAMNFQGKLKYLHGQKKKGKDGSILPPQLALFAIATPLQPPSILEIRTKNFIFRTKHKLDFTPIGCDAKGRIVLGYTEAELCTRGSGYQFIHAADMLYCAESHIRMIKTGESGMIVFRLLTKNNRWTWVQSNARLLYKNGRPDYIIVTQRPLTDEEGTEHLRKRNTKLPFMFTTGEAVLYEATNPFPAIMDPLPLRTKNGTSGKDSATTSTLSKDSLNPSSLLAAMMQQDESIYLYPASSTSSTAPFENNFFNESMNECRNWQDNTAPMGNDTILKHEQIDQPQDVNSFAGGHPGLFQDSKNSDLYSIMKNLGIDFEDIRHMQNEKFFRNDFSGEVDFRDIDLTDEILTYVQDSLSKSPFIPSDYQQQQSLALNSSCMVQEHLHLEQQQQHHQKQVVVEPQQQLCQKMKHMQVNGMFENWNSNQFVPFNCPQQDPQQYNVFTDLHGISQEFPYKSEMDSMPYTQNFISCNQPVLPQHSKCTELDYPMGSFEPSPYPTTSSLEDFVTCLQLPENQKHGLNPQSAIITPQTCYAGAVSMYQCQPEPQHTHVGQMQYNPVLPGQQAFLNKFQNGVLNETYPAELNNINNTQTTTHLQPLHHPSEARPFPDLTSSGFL
As to the kind of experiment: Luminescence-based cell-based high throughput dose response assay for activators of the Aryl Hydrocarbon Receptor (AHR). [Related pubchem assays: 2796 (Primary screen (AHR activators in singlicate)), 2845 (Confirmation screen (AHR activators in triplicate)), 434939 (Counterscreen (PXR activators in triplicate)), 2804 (Summary (AHR activators))]. It counts as ADME. In general terms: A counterscreen serves to expose hits that act by an unwanted route or on another target.

Experiment [2] concerns the target T2, E3 ubiquitin-protein ligase XIAP (Homo sapiens, UniProt P98170). Nature of the experiment: XIAP antagonists, biochemical, IAP family, fluorescence polarization (AID 1018). It counts as functional. A general note: In fluorescence polarisation assays a small probe gives low polarisation when free and higher when bound to something large.
Experiment [3] has as its target T2, E3 ubiquitin-protein ligase XIAP. Nature of the experiment: Counter Screen using XIAP-Bir3 for Chemical Antagonists of Bir1/2 domains of IAP-family anti-apoptotic proteins. [Related pubchem assays (depositor defined):AID1018, AID1449, AID1514, AID1638, AID1749, AID1750, AID488957, AID488963].
The target of experiment [4] is T3, X-box-binding protein 1 (Homo sapiens, UniProt P17861).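 Further: confirmatory dose-response counter-screen serving a CHOP assay.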
T3 sequence (P17861 whole entry): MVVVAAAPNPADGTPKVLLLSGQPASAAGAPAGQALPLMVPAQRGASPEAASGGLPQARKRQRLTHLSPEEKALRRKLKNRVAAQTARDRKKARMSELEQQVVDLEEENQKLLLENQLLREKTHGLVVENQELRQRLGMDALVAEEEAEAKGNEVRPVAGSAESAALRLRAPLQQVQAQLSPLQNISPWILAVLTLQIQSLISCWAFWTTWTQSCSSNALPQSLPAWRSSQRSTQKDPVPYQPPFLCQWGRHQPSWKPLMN
It is filed as functional, Cricetulus griseus.

In experiment [5] the target is T4, Caspase-6 (Homo sapiens, UniProt P55212).
T4 sequence (P55212 whole entry): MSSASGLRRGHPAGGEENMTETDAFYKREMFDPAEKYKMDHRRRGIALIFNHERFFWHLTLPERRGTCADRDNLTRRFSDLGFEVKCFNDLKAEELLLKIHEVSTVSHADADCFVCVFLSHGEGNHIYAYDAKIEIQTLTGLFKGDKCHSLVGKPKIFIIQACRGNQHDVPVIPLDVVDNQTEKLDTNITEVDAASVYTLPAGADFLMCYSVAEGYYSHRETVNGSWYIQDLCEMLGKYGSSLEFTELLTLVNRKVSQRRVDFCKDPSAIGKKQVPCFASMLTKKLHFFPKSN
Nature of the experiment: human caspase-6 inhibitors, dose response, biochemical, VEID-R110 fluorescence, cherry-pick (AID 720632).

The target in experiment [6] is T5, Heat shock factor protein 1 (Mus musculus, UniProt P38532).
T5 sequence (P38532 whole entry): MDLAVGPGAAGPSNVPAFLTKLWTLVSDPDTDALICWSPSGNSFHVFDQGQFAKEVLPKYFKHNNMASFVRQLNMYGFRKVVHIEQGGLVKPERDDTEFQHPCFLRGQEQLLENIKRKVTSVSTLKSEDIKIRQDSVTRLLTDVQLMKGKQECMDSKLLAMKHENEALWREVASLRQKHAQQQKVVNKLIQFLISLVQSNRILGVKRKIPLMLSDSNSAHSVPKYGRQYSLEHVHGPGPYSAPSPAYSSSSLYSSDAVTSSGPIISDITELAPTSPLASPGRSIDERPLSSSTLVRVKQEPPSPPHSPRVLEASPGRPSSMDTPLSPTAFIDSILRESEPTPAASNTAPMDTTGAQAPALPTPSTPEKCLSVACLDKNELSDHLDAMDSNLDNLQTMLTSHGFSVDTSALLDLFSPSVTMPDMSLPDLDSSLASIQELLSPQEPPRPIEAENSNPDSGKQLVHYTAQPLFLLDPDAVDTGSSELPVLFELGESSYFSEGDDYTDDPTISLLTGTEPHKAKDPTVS
Nature of the experiment: inhibition of MG132-induced HSE-luciferase signal, confirmation, cell-based, NIH3T3, luminescence, dose retest (AID 2382).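 Further: NIH3T3 fibroblasts with HSF1-driven luciferase reporter stressed by proteasome inhibitor MG132; luminescence from HSF1-driven luciferase expression after 8 hours of MG132 stress.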 It counts as functional.

Experiment [7] concerns Streptococcus sp. 'group A'. As to the kind of experiment: growth inhibition of control SK(-) GAS strain, dose response, counter-screen for streptokinase expression inhibitor project, luminescence, kanamycin, BacTiterGlo, confirmation (AID 1900). It counts as functional, organism-based.
Experiment [8] deals with Streptococcus. Nature of the experiment: Group A Streptococcus viability loss, dose response, counter-screen for streptokinase expression inhibitor project, luminescence, BacTiterGlo (AID 1915).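 Further: potency for reduction of bacterial viability or growth.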 It is filed as functional, organism-based.

The source made the active and inactive calls. Where only a bound is given, the exact number is not on record here.

One may read the EC50 as the concentration giving half of the maximal effect. Usually IC50 stands for the concentration needed to halve the response being measured. For orientation: AC50 means the concentration giving half of the maximal activity seen.

T2 sequence (P98170 whole entry): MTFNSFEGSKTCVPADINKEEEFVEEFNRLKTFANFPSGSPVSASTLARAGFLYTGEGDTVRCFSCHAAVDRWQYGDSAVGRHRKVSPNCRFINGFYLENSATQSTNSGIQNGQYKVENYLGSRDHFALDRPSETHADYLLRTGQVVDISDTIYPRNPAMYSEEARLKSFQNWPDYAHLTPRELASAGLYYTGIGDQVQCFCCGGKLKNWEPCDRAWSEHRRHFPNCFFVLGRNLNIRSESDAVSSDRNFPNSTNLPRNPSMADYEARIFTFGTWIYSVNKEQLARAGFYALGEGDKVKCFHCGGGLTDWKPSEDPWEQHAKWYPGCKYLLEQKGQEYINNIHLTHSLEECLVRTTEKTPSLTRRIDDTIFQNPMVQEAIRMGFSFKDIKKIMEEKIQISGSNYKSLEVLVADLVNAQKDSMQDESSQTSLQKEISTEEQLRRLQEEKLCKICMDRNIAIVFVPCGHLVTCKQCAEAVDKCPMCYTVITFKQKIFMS

Turning to `CCCC(=O)Nc1nn(C)c2nc3cc(C)ccc3cc12`, the EC50 in experiment [1] was 0.458 µM (active).

Turning to `CN1CCN(c2ccccc2NC(=O)c2ccc(-c3cccc([N+](=O)[O-])c3)o2)CC1`, the IC50 is > 100 µM (not active) in experiment [2] and > 100 µM (inactive) in experiment [3].

As to `Cn1c(-c2cccc(OCc3ccccc3)c2)nc2c1c(=O)[nH]c(=O)n2Cc1ccccc1`, the “Absolute IC50 (XBP1)” value in experiment [4] is 10 µM.

Regarding `Cc1cc(S(=O)(=O)N2CCN(Cc3ccccc3)CC2)c(C)s1`, the IC50 in experiment [2] is > 100 µM (not active); in experiment [3], > 100 µM (inactive).

Consider `O=C(O)COn1c(-c2ccccc2)nc2ccc([N+](=O)[O-])cc21`, for which, in experiment [5], the AC50 was 5.23 µM (active). Moreover, the EC50 in experiment [1] was 4.82 µM (active).

Consider `CC(C)CC(NC(=O)c1ccco1)C(=O)Nc1ccc2c(c1)OCCO2` (stereo unspecified), for which the IC50 was > 100 µM (not active) in experiment [2] and > 100 µM (inactive) in experiment [3]. Further, in experiment [6], the EC50 was 11.3 µM (active).

On to `CC[C@H]1OC(=O)[C@H](C)[C@@H](O[C@H]2C[C@@](C)(OC)[C@@H](O)[C@H](C)O2)[C@H](C)[C@@H](O[C@@H]2O[C@H](C)C[C@H](N(C)C)[C@H]2O)[C@](C)(O)C[C@@H](C)[C@@H]2N[C@@H](COCCOC)O[C@H]([C@H]2C)[C@]1(C)O` [DIRITHROMYCIN], for which the IC50 is > 100 µM (not active) in experiment [2] and > 100 µM (inactive) in experiment [3]. Besides, the EC50 in experiment [7] was < 60 nM (active); in experiment [8] it was 117 nM (active).

On to `COC(=O)c1ccccc1NC(=O)Cn1ccnc1`, for which, in experiment [1], the EC50 is 2.18 µM (active).
